According to patent US20260098030A1, “NEGATIVE ALLOSTERIC MODULATORS OF METABOTROPIC GLUTAMATE RECEPTOR 2” (Vanderbilt University, priority 2022, published 2026):

Molecular target: T1, human mGlu2 (Homo sapiens, UniProt Q14416)
T1 construct: expressed in transfected cells; host or cells: HEK-293 cells stably co-expressing GIRK channels
Assay: mGlu GIRK cell-based thallium flux assay, human mGlu2
Settings: HEK-293 cells co-expressing human mGlu2 and GIRK, EC80 glutamate
Description: Human embryonic kidney (HEK-293) cell lines stably co-expressing human or rat mGlu2 and G protein-coupled inwardly rectifying potassium (GIRK) channels, or human mGlu3 and GIRK, were used for in vitro evaluation of compound activity in thallium flux assay using a fluorescent thallium indicator dye.
The day before the assay, GIRK cells co-expressing human mGlu3, human or rat mGlu2, as described above, were plated in black-walled, clear-bottomed, amine-coated 384-well plates at a density of 15,000 cells/20 μL/well in the assay medium (glutamine-depleted basal DMEM supplemented with 10% dialyzed FBS, 20 mM HEPES, 1 mM sodium pyruvate). Cells were incubated at 37° C. in the presence of 5% CO2. The next day, assay buffer (Hanks balanced salt solution, 20 mM HEPES, 4.16 mM sodium bicarbonate, pH 7.2) was prepared to dilute compounds and Thallos AM fluorescent dye solution. The 2× Thallos dye solution (final concentration 0.34 μM to the cells) was prepared by mixing the dye stock (2.97 mM in DMSO) to 1:1 with 10% pluronic acid before adding to the assay buffer. Cells were washed with assay buffer using a microplate washer to remove the medium, resulting in 20 μL of buffer remaining in each well. Immediately, 20 μL of 2× Thallos dye solution was added to cells, and incubated for one hour at 25° C. During the cell dye loading incubation period, a 10-point concentration serial dilution of compound was created from a 10 mM DMSO compound stock by performing a 1:3 serial dilution in DMSO using the Bravo liquid handler. The 2× compound plate was generated by transferring 0.24 μL of the diluted compound in each well to a daughter plate using an Echo acoustic liquid handler. This is further diluted in 40 μL assay buffer, resulting in a range from 30 μM to 1.5 nM final concentration in the assay. The agonist plate (5×) was prepared to include EC80 glutamate concentration (a concentration to elicit 80% of a maximally effective glutamate concentration) in thallium buffer (125 mM […], 1 mM magnesium sulfate, 1.8 mM calcium sulfate, 5 mM glucose, 10 mM HEPES, pH 7.2, 12.5 mM thallium sulfate).
After dye-loading, cell plates were washed with assay buffer to remove excess extracellular dye using a microplate washer, resulting in 20 μL of buffer remaining in each well. After a ten-minute equilibration period, cell, compound and agonist plates were loaded into a Hamamatsu μCell kinetic imaging plate reader equipped with liquid handler to monitor fluorescence changes at 480 nm excitation and 540 nm emission settings. Briefly, after collection of baseline fluorescence, 20 μL of compound was added and incubated for two minutes and twenty seconds. This is immediately followed by adding 10 μL of glutamate-thallium buffer to the wells containing compound. The fluorescent signal was monitored an additional 2.5 minutes after the glutamate addition. Multiple reference wells containing no compound received either no glutamate (for a baseline reference), EC80 glutamate, or ECmax glutamate (for normalization to maximum response). Fluorescence was measured throughout the experiment at a frequency of 1 measurement per every 2 seconds before the glutamate addition and a frequency of 1 measurement per every 1 second after the glutamate addition. Each compound concentration series occurred one time in each plate, and replicates from two or three plates were used in each experimental run. Thallium solutions were handled and disposed of according to guidelines from the Vanderbilt University Chemical Safety department.
Data were normalized using a static ratio function (F/F0) by dividing every fluorescent measurement by the initial fluorescent value for the corresponding well. The increase in signal resulting from the glutamate/thallium addition of the second add was measured by determining the slope from 3 seconds to 13 seconds after the addition. […]

T1 sequence (Q14416 19-872): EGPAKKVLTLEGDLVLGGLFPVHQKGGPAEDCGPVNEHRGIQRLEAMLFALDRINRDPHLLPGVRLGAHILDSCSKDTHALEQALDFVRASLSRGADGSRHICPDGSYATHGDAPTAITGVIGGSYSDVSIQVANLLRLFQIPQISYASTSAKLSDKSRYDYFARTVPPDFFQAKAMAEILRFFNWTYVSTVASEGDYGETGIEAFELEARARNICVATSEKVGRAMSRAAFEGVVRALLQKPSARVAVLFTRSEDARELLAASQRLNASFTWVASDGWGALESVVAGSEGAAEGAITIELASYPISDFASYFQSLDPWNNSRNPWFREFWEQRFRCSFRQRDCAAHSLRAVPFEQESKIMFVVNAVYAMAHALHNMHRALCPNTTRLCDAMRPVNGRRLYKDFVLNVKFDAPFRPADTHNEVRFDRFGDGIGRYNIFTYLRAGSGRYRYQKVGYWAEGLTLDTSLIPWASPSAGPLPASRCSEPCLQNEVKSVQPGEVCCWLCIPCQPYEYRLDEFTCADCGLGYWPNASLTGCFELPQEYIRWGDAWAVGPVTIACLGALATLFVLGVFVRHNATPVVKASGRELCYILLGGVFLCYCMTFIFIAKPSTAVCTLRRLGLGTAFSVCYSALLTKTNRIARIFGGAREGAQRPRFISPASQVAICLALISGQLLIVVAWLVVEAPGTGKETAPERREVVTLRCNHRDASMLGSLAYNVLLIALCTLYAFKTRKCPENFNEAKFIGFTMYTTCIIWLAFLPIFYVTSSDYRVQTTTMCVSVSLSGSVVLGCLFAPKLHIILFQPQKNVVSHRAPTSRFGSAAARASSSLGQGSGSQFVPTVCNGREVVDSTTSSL

O=C1NCc2cc(-c3cnc(Cl)n3C3CCCCO3)c(-c3ccc(F)cc3F)cc21 (centres unmarked) [Compound 148, 5-(2-chloro-1-(tetrahydro-2H-pyran-2-yl)-1H-imidazol-5-yl)-6-(2,4-difluorophenyl)isoindolin-1-one]
IC50: 454 nM

Cn1cc(S(=O)(=O)Nc2ccccc2-c2cc3c(cc2-c2ccc(F)cc2F)C(=O)NC3)nn1 [Compound 163, N-(2-(6-(2,4-difluorophenyl)-1-oxoisoindolin-5-yl)phenyl)-1-methyl-1H-1,2,3-triazole-4-sulfonamide]
IC50: 1110 nM

CS(=O)(=O)Nc1cccc(-c2cc3c(cc2-c2ccc(F)cc2F)C(=O)NC3)c1 [Compound 116, N-(3-(6-(2,4-difluorophenyl)-1-oxoisoindolin-5-yl)phenyl)methanesulfonamide]
IC50: 931 nM

COc1c(F)cc(-c2cc3c(cc2-c2cccc(C#N)c2)CNC3=O)cc1F [Compound 182, 3-(6-(3,5-difluoro-4-methoxyphenyl)-1-oxoisoindolin-5-yl)benzonitrile]
IC50: > 10000 nM

Cc1noc(C)c1-c1cc2c(cc1-c1ccc(F)cc1F)C(=O)NC2 [Compound 126, 6-(2,4-difluorophenyl)-5-(3,5-dimethylisoxazol-4-yl)isoindolin-1-one]
IC50: > 10000 nM

CS(=O)(=O)c1cccc(-c2cc3c(cc2-c2ccc(F)cc2F)C(=O)NC3)c1 [Compound 122, 6-(2,4-difluorophenyl)-5-(3-(methylsulfonyl)phenyl)isoindolin-1-one]
IC50: 1290 nM

COc1cc(F)ccc1-c1cc2c(cc1-c1cccc(C#N)c1)CNC2=O [Compound 156, 3-(6-(4-fluoro-2-methoxyphenyl)-1-oxoisoindolin-5-yl)benzonitrile]
IC50: 660 nM

COc1ccc(-c2cc3c(cc2-c2cccc(C#N)c2)CNC3=O)c(F)c1 [Compound 157, 3-(6-(2-fluoro-4-methoxyphenyl)-1-oxoisoindolin-5-yl)benzonitrile]
IC50: 736 nM

Cn1nc(CCc2cc3c(cc2-c2ccc(F)cc2F)C(=O)NC3)cc1C#N [Compound A9, 3-(2-(6-(2,4-difluorophenyl)-1-oxoisoindolin-5-yl)ethyl)-1-methyl-1H-pyrazole-5-carbonitrile]
IC50: 273 nM

N#Cc1cccc(-c2cc3c(cc2-c2ccc(F)cc2Cl)C(=O)NC3)c1 [Compound 169, 3-(6-(2-chloro-4-fluorophenyl)-1-oxoisoindolin-5-yl)benzonitrile]
IC50: 2250 nM

N#Cc1cccc(-c2cc3c(cc2-c2ccc(O)cc2F)C(=O)NC3)c1 [Compound 168, 3-(6-(2-fluoro-4-hydroxyphenyl)-1-oxoisoindolin-5-yl)benzonitrile]
IC50: > 10000 nM

Cc1ncc(S(=O)(=O)Nc2ccccc2-c2cc3c(cc2-c2ccc(F)cc2F)C(=O)NC3)s1 [Compound 164, N-(2-(6-(2,4-difluorophenyl)-1-oxoisoindolin-5-yl)phenyl)-2-methylthiazole-5-sulfonamide]
IC50: 955 nM

[2H]C1([2H])NC(=O)c2cc(-c3ccc(F)cc3F)c(C([2H])([2H])C([2H])([2H])c3ccn(C)n3)cc21 [Compound A5, 6-(2,4-difluorophenyl)-5-(2-(1-methyl-1H-pyrazol-3-yl)ethyl-1,1,2,2-d4)isoindolin-1-one-3,3-d2]
IC50: 205 nM

Cc1ccc(-c2cc3c(cc2-c2cccc(C#N)c2)CNC3=O)c(F)c1 [Compound 142, 3-(6-(2-fluoro-4-methylphenyl)-1-oxoisoindolin-5-yl)benzonitrile]
IC50: 1310 nM

N#Cc1cccc(-c2cc3c(cc2-c2cccc(C#N)c2F)C(=O)NC3)c1 [Compound 183, 3-(6-(3-cyanophenyl)-3-oxoisoindolin-5-yl)-2-fluorobenzonitrile]
IC50: > 10000 nM

[2H]C([2H])([2H])n1nncc1-c1cccc(-c2cc3c(cc2-c2ccc(F)cc2F)C(=O)NC3)c1 [Compound 152, 6-(2,4-difluorophenyl)-5-(3-(1-(methyl-d3)-1H-1,2,3-triazol-5-yl)phenyl)isoindolin-1-one]
IC50: 693 nM

COc1cc(F)c(-c2cc3c(cc2-c2cccc(C#N)c2)CNC3=O)cc1F [Compound 174, 3-(6-(2,5-difluoro-4-methoxyphenyl)-1-oxoisoindolin-5-yl)benzonitrile]
IC50: > 10000 nM

Cn1cc(S(=O)(=O)Nc2ccccc2-c2cc3c(cc2-c2ccc(F)cc2F)C(=O)NC3)cn1 [Compound 165, N-(2-(6-(2,4-difluorophenyl)-1-oxoisoindolin-5-yl)phenyl)-1-methyl-1H-pyrazole-4-sulfonamide]
IC50: 637 nM

CS(=O)(=O)n1cc(-c2cc3c(cc2-c2ccc(F)cc2F)C(=O)NC3)cn1 [Compound 127, 6-(2,4-difluorophenyl)-5-(1-(methylsulfonyl)-1H-pyrazol-4-yl)isoindolin-1-one]
IC50: 7940 nM

[2H]C([2H])(C)n1nncc1-c1cccc(-c2cc3c(cc2-c2ccc(F)cc2F)C(=O)NC3)c1 [Compound 153, 6-(2,4-difluorophenyl)-5-(3-(1-(ethyl-1,1-d2)-1H-1,2,3-triazol-5-yl)phenyl)isoindolin-1-one]
IC50: 727 nM

[2H]C([2H])(c1cc2c(cc1-c1ccc(F)cc1F)C(=O)NC2)C([2H])([2H])c1ccnn1C [Compound A6, 6-(2,4-difluorophenyl)-5-(2-(1-methyl-1H-pyrazol-5-yl)ethyl-1,1,2,2-d4)isoindolin-1-one]
IC50: 287 nM

N#Cc1cccc(-c2cc3c(cc2-c2cc(F)cc(C#N)c2)C(=O)NC3)c1 [Compound 189, 3-(6-(3-cyanophenyl)-3-oxoisoindolin-5-yl)-5-fluorobenzonitrile]
IC50: > 10000 nM

O=C1NCc2cc(-c3cnn(C4COC4)c3)c(-c3ccc(F)cc3)cc21 [Compound 3, 6-(4-fluorophenyl)-5-(1-(oxctan-3-yl)-1H-pyrazol-4-yl)isoindolin-1-one]
IC50: > 10000 nM

Cc1ccc(C#N)cc1-c1cc2c(cc1-c1cccc(C#N)c1)CNC2=O [Compound 188, 3-(6-(3-cyanophenyl)-3-oxoisoindolin-5-yl)-4-methylbenzonitrilc]
IC50: > 10000 nM

Cn1nncc1-c1cccc(-c2cc3c(cc2-c2ccc(F)cc2F)C(=O)NC3)c1 [Compound 151, 6-(2,4-difluorophenyl)-5-(3-(1-methyl-1H-1,2,3-triazol-5-yl)phenyl)isoindolin-1-one]
IC50: 857 nM

N#Cc1cccc(-c2cc3c(cc2-c2cc(F)ccc2F)C(=O)NC3)c1 [Compound 185, 3-(6-(2,5-difluorophenyl)-1-oxoisoindolin-5-yl)benzonitrile]
IC50: > 10000 nM

COc1ccc(F)cc1-c1cc2c(cc1-c1cccc(C#N)c1)CNC2=O [Compound 186, 3-(6-(5-fluoro-2-methoxyphenyl)-1-oxoisoindolin-5-yl)benzonitrile]
IC50: > 10000 nM

N#Cc1ccccc1-c1cc2c(cc1-c1ccc(F)cc1F)C(=O)NC2 [Compound 124, 2-(6-(2,4-difluorophenyl)-1-oxoisoindolin-5-yl)benzonitrile]
IC50: 496 nM

N#Cc1cccc(-c2cc3c(cc2-c2cc(C(F)(F)F)ccc2F)C(=O)NC3)c1 [Compound 180, 3-(6-(2-fluoro-5-(trifluoromethyl)phenyl)-1-oxoisoindolin-5-yl)benzonitrile]
IC50: > 10000 nM

COc1ccc(-c2cc3c(cc2-c2cccc(C#N)c2)CNC3=O)c(F)c1F [Compound 184, 3-(6-(2,3-difluoro-4-methoxyphenyl)-1-oxoisoindolin-5-yl)benzonitrile]
IC50: 1130 nM

N#Cc1cccc(-c2cc3c(cc2-c2cc(F)ccc2C#N)C(=O)NC3)c1 [Compound 187, 2-(6-(3-cyanophenyl)-3-oxoisoindolin-5-yl)-4-fluorobenzonitrile]
IC50: 9580 nM

N#Cc1cccc(-c2cc3c(cc2-c2ccccc2F)C(=O)NC3)c1 [Compound 159, 3-(6-(2-fluorophenyl)-1-oxoisoindolin-5-yl)benzonitrile]
IC50: 1720 nM
